Test results reported in patent US4198431A, “Alkyl N-(3-trifluoromethylphenyl)-anthranilate” (Hokuriku Pharmaceutical Co., Ltd., priority 1978, dated 1980).
Read-outs that look alike come from different tables or passages of the source.

Assays:
[1] = test system: carrageenin edema; assay: Carrageenin edema-preventing effect of ointment, comparison with Bufexamac (Table 3); type: in vivo, rat (Wistar, male); conditions: ointment 50 mg applied 3, 2 and 1 hours before carrageenin; for swelling (paw volume increase), 1 hr: control 48%; for swelling (paw volume increase), 2 hr: control 90%, ***p 0.02; for swelling (paw volume increase), 3 hr: control 95%, **p 0.05; for swelling (paw volume increase), 4 hr: control 91%; for swelling (paw volume increase), 5 hr: control 88%
Method: The butyl ester of the invention and Bufexamac were further compared in ointment form with respect to the edema-preventing effect thereof. Using eight (8) Wistar male rats, weighing 120 to 140 g., as one grouping, 50 mg. each of the test ointments was applied onto the sole of rear paws 3, 2 and 1 hours before an agent which induced inflammation was administered, after the paw volume at one side was measured. Carrageenin (1%: 0.1 ml.) was subcutaneously administered as the inflammation-inducingagent. Thereafter, the paw volume was again measured every hour over a period of five (5) hours. An edema-preventing rate was determined from the volume prior to administration of the inflammation-inducing agent.

[2] = test system: carrageenin edema; assay: Carrageenin edema-preventing effect, 5% ointment (Table 2); type: in vivo, rat (Wistar, female); conditions: for swelling percent (rate of volume increase), 1 hr / preventing rate (rate of edema prevention), 1 hr / swelling percent (rate of volume increase), 2 hr / preventing rate (rate of edema prevention), 2 hr / swelling percent (rate of volume increase), 3 hr / preventing rate (rate of edema prevention), 3 hr / swelling percent (rate of volume increase), 4 hr / preventing rate (rate of edema prevention), 4 hr / swelling percent (rate of volume increase), 5 hr / preventing rate (rate of edema prevention), 5 hr: 5% ointment, 50 mg/rat; for swelling percent (rate of volume increase), 1 hr / swelling percent (rate of volume increase), 2 hr / swelling percent (rate of volume increase), 3 hr / swelling percent (rate of volume increase), 4 hr / swelling percent (rate of volume increase), 5 hr: sole of rear paws; for swelling percent (rate of volume increase), 1 hr: control 37.1%; for preventing rate (rate of edema prevention), 1 hr / preventing rate (rate of edema prevention), 2 hr / preventing rate (rate of edema prevention), 3 hr / preventing rate (rate of edema prevention), 4 hr / preventing rate (rate of edema prevention), 5 hr: calculated in contrast to control; for swelling percent (rate of volume increase), 2 hr: control 74.4%; for swelling percent (rate of volume increase), 3 hr: control 83.9%; for swelling percent (rate of volume increase), 4 hr: control 83.3%; for swelling percent (rate of volume increase), 5 hr: control 80.8%
Method: Next, the carrageenin edema-preventing effect [E. Yamazaki, et al., Folia Pharmacologica Japonica, vol. 63, page 302 (1967)] was examined using an ointment containing a five-percent(5%) concentration of active ingredient. Using ten (10) Wistar female rats as one grouping, each test compound was applied at the rate of fifty (50) mg/rat onto the sole of the rear paws […] (30) minutes. After carrageenin was subcutaneously administered (1% carrageenin: 0.1 ml/rat) at the ointment-administered area, the volume was measured over a period of five (5) hours, during which a definite amount (50 mg/rat) of each test compound was administered every hour over a period of four (4) hours after the first measurement of the paw volume. The edema-preventing effect was thus determined in contrast to known compounds. In Table 2 following, the swelling percent (rate of volume increase) is given. The figures in parenthesis indicate the rate of edema prevention which was calculated in contrast to control. In control, carrageenin alone was administered.

[3] = test system: ddY type male mice; assay: Acute toxicity (LD50) after oral administration; type: in vivo; conditions: oral, mice; comparison with methyl or ethyl ester
Description: (§1) Using ddY type male mice, acute toxicity (LD50) was examined after oral administration of the methyl, ethyl and butyl esters, respectively.
(§2) In a similar manner, LD50 was examined with regard to the C5 -C8 higher alkyl esters.

[4] = Acute toxicity (LD50) after oral administration; type: in vivo; conditions: mouse, in vivo
Description: as §1, §2

[5] = oral, ddY type male mice, 95% confidence limit in parentheses, read-out: LD50 (95% Confidence Limit)

Compound | preventing rate (edema-preventing rate), 1 hr [1] | swelling (paw volume increase), 1 hr [1] | preventing rate (edema-preventing rate), 2 hr [1] | swelling (paw volume increase), 2 hr [1] | preventing rate (edema-preventing rate), 3 hr [1] | swelling (paw volume increase), 3 hr [1] | preventing rate (edema-preventing rate), 4 hr [1] | swelling (paw volume increase), 4 hr [1] | preventing rate (edema-preventing rate), 5 hr [1] | swelling (paw volume increase), 5 hr [1] | swelling percent (rate of volume increase), 1 hr [2] | preventing rate (rate of edema prevention), 1 hr [2] | swelling percent (rate of volume increase), 2 hr [2] | preventing rate (rate of edema prevention), 2 hr [2] | swelling percent (rate of volume increase), 3 hr [2] | preventing rate (rate of edema prevention), 3 hr [2] | swelling percent (rate of volume increase), 4 hr [2] | preventing rate (rate of edema prevention), 4 hr [2] | swelling percent (rate of volume increase), 5 hr [2] | LD50 [4, 5] | further results
CCCCOc1ccc(CC(=O)NO)cc1 [Bufexamac, reference compound] | 10.4% | 43% | 18.9% | 73% | 18.9% | 76% | 16.5% | 76% | 17.2% | 72% |  |  |  |  |  |  |  |  |  |  | 
CCCCOC(=O)c1ccccc1Nc1cccc(C(F)(F)F)c1 [Compound of Invention, n-Butyl N-(3-trifluoromethylphenyl)anthranilate] | 10.4% | 43% | 30% | 63% | 28.4% | 68% | 24.2% | 69% | 22.7% | 68% | 23.5% | 36.7% | 47.3% | 36.4% | 54.8% | 34.7% | 55.5% | 33.4% | 50.0% | 3100 mg/kg | preventing rate (rate of edema prevention), 5 hr [2]: 38.1%; edema-preventing effect as compared to the known compound ([2]; versus N-(3-trifluoromethylphenyl)anthranilic acid, Table 2): improved edema-preventing effect; LD50 relative to that of the corresponding methyl or ethyl ester [3]: 1/2
CCCCCCCCOC(=O)c1ccccc1Nc1cccc(C(F)(F)F)c1 [Example 12] |  |  |  |  |  |  |  |  |  |  |  |  |  |  |  |  |  |  |  |  | LD50 ([4]; po, n-octyl ester, examined in a similar manner, read-out: LD50): ~5000 mg/kg
COC(=O)c1ccccc1Nc1cccc(C(F)(F)F)c1 [I, Methyl N-(3-trifluoromethylphenyl)anthranilate, reference compound] |  |  |  |  |  |  |  |  |  |  |  |  |  |  |  |  |  |  |  | 1620 mg/kg | 
CCOC(=O)c1ccccc1Nc1cccc(C(F)(F)F)c1 [II, Ethyl N-(3-trifluoromethylphenyl)anthranilate, reference compound] |  |  |  |  |  |  |  |  |  |  |  |  |  |  |  |  |  |  |  | 1820 mg/kg | 
O=C(O)c1ccccc1Nc1cccc(C(F)(F)F)c1 [N-(3-trifluoromethylphenyl)anthranilic acid, reference compound] |  |  |  |  |  |  |  |  |  |  | 28.4% | 23.5% | 61.8% | 16.9% | 62.3% | 25.8% | 61.4% | 26.3% | 61.2% |  | preventing rate (rate of edema prevention), 5 hr [2]: 24.2%
